Measured values as given in US20090325952A1, “PYRAZOLO[3,4-B]PYRIDINE COMPOUNDS, AND THEIR USE AS PDE4 INHIBITORS” (Glaxo Group Limited, priority 2006, published 2009).
Structures can show the parent of a compound that is named as a salt.

Target: T1, PDE4B (human recombinant) (Homo sapiens, UniProt Q07343)
T1 construct: made in house; host or cells: Saccharomyces cerevisiae strain GL62 (PDE-deficient yeast)
Experiment: Inhibition of PDE4B activity (FP and/or SPA assay)
Type: biochemical
Conditions: one reading or average of n readings; for IC50: generally FP assay, read-out: PDE4B pIC50 (generally in FP assay) (±about 0.5) (converted)
From the text: Human recombinant PDE4B, in particular the 2B splice variant thereof (HSPDE4B2B), is disclosed in WO 94/20079 and also M. M. McLaughlin et al., “A low Km, rolipram-sensitive, cAMP-specific phosphodiesterase from human brain: cloning and expression of cDNA, biochemical characterisation of recombinant protein, and tissue distribution of mRNA”, J. Biol. Chem., 1993, 268, 6470-6476. For example, in Example 1 of WO 94/20079, human recombinant PDE4B is described as being expressed in the PDE-deficient yeast Saccharomyces cerevisiae strain GL62, e.g. after induction by addition of 150 uM CuSO4, and 100,000×g supernatant fractions of yeast cell lysates are described for use in the harvesting of PDE4B enzyme.
The ability of compounds to inhibit catalytic activity at PDE4B or 4D (human recombinant), PDE3 (from bovine aorta), PDE5 (human recombinant) or PDE6 (from bovine retina) can optionally be determined by Scintillation Proximity Assay (SPA) in a 96-well format.
Test compounds (as a solution in DMSO, suitably about 2 microlitre (ul) volume of DMSO solution) are preincubated at ambient temperature (room temperature, e.g. 19-23° C.) in Wallac Isoplates (code 1450-514) with PDE enzyme in 50 mM Tris-HCl buffer pH 7.5, 8.3 mM MgCl2, 1.7 mM EGTA, 0.05% (w/v) bovine serum albumin for 10-30 minutes (usually 30 minutes). The enzyme concentration is adjusted so that no more than 20% hydrolysis of the substrate defined below occurs in control wells without compound, during the incubation. For the PDE3, PDE4B and PDE4D assays, [5′,8-^3H]Adenosine 3′,5′-cyclic phosphate (Amersham Pharmacia Biotech, code TRK.559; or Amersham Biosciences UK Ltd, Pollards Wood, Chalfont St Giles, Buckinghamshire HP8 4SP, UK) is added to give 0.05uCi per well and about 10 nM final concentration. For the PDE5 and PDE6 assays, [8^−3H]Guanosine 3′,5′-cyclic phosphate (Amersham Pharmacia Biotech, code TRK.392) is added to give 0.05uCi per well and about 36 nM final concentration. Plates containing assay mixture, suitably approx. 100 ul volume of assay mixture, are mixed on an orbital shaker for 5 minutes and incubated at ambient temperature for 1 hour. Phosphodiesterase SPA beads (Amersham Pharmacia Biotech, code RPNQ 0150) are added (about 1 mg per well) to terminate the assay. Plates are sealed and shaken and allowed to stand at ambient temperature for 35 minutes to 1 hour (suitably 35 minutes) to allow the beads to settle. Bound radioactive product is measured using a WALLAC TRILUX 1450 Microbeta scintillation counter. For inhibition curves, 10 concentrations (e.g. 1.5 nM-30 uM) of each compound are assayed. Curves are analysed using ActivityBase and XLfit (ID Business Solutions Limited, 2 Ocean Court, Surrey Research Park, Guildford, Surrey GU2 7QB, United Kingdom) Results are expressed as pIC50 values.
The ability of compounds to inhibit catalytic activity at PDE4B (human recombinant) or PDE4D (human recombinant) can optionally be determined by IMAP Fluorescence Polarisation (FP) assay (IMAP Explorer kit, available from Molecular Devices Corporation, Sunnydale, Calif., USA; Molecular Devices code: R8062) in 384-well format.
The IMAP FP assay is able to measure PDE activity in an homogenous, non-radioactive assay format. The FP assay uses the ability of immobilised trivalent metal cations, coated onto nanoparticles (tiny beads), to bind the phosphate group of Fl-AMP that is produced on the hydrolysis of fluorescein-labelled (Fl) cyclic adenosine mono-phosphate (Fl-cAMP) to the non-cyclic Fl-AMP form. […] Binding of Fl-AMP product to the beads (coated with the immobilised trivalent cations) slows the rotation of the bound Fl-AMP and leads to an increase in the fluorescence polarisation ratio of parallel to perpendicular light. Inhibition of the PDE reduces/inhibits this signal increase. […]

T1 sequence (Q07343 1-564 isoform Q07343-2): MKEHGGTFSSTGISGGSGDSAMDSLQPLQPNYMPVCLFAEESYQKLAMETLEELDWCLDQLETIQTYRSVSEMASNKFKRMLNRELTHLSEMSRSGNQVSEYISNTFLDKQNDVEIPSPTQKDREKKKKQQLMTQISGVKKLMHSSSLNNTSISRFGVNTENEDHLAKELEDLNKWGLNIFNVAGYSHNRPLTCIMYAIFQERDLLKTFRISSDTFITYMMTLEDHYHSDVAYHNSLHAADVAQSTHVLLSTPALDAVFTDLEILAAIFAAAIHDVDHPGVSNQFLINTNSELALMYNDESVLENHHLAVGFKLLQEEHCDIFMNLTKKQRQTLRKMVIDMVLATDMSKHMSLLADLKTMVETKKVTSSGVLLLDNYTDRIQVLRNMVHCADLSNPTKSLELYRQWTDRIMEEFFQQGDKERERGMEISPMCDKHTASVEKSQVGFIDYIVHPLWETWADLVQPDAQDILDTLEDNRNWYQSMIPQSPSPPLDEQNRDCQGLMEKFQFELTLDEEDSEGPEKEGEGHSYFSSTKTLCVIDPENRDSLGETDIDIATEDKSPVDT

Compound	IC50	PDE4B pIC50 (generally in FP assay) (±about 0.5)
CCc1nc2c(cnn2CC)c(NC2CCOCC2)c1CNC(=O)c1ccc(NC(=O)CCCCCCCN(C)CCO)cc1 [Example 1A1, N-{[1,6-Diethyl-4-(tetrahydro-2H-pyran-4-ylamino)-1H-pyrazolo[3,4-b]pyridin-5-yl]methyl}-4-({8-[(2-hydroxyethyl)(methyl)amino]octanoyl}amino)benzamide dihydrochloride]	~0.0501 nM	
CCc1nc2c(cnn2CC)c(NC2CCN(C(N)=O)CC2)c1CNC(=O)c1ccc(NC(=O)CCCCCCCN(C)CCO)cc1.O=C(O)C(F)(F)F [Example 9, 4-({1,6-diethyl-5-[({[4-({8-[(2-hydroxyethyl)(methyl)amino]octanoyl}amino)phenyl]carbonyl}amino)methyl]-1H-pyrazolo[3,4-b]pyridin-4-yl}amino)-1-piperidinecarboxamide trifluoroacetate (salt)]		about 10.3 (n = 1)
CCc1nc2c(cnn2CC)c(NC2CCOCC2)c1CNC(=O)c1ccc(CCCCOCCCCN(C)CCO)cc1 [Example 19, formate salt of N-{[1,6-diethyl-4-(tetrahydro-2H-pyran-4-ylamino)-1H-pyrazolo[3,4-b]pyridin-5-yl]methyl}-4-[4-({4-[(2-hydroxyethyl)(methyl)amino]butyl}oxy)butyl]benzamide]	~0.0398 nM	
CCn1ncc2c(NC3CCOCC3)c(CNC(=O)c3ccc(NC(=O)CCCCCCCN(C)CCO)cc3)cnc21 [Example 26, Formate salt of N-{[1-ethyl-4-(tetrahydro-2H-pyran-4-ylamino)-1H-pyrazolo[3,4-b]pyridin-5-yl]methyl}-4-({8-[(2-hydroxyethyl)(methyl)amino]octanoyl}amino)benzamide]	~0.251 nM	

Continued, in another order:

IC50	Compound	PDE4B pIC50 (generally in FP assay) (±about 0.5)
~0.0631 nM	CCc1nc2c(cnn2CC)c(NC2CCOCC2)c1CNC(=O)c1ccc(NC(=O)CCCCCCCN(C)CCO)cc1 [Example 1B, N-{[1,6-diethyl-4-(tetrahydro-2H-pyran-4-ylamino)-1H-pyrazolo[3,4-b]pyridin-5-yl]methyl}-4-({8-[(2-hydroxyethyl)(methyl)amino]octanoyl}amino)benzamide]	
~0.1 nM	CCc1nc2c(cnn2CC)c(NC2CCN(C(N)=O)CC2)c1CNC(=O)c1ccc(CCCCOCCCCN2CCOCC2)cc1 [Example 23A, 4-({1,6-diethyl-5-[({[4-(4-{[4-(4-morpholinyl)butyl]oxy}butyl)phenyl]carbonyl}amino)methyl]-1H-pyrazolo[3,4-b]pyridin-4-yl}amino)-1-piperidinecarboxamide]	
